According to patent US6277829A, “Process for preparing of aqueous formulation for opthalmic use” (S.I.F.I. Societa Industria Farmaceutica Italiana S.p.A., priority 1999, dated 2001):
In brackets after ≈: the same amount, converted by molar mass.

Key:
[1] = titration of azithromycin and clarithromycin, dispersed in water, with citric acid (FIG. 1, FIG. 2); assay type: physicochemical
[2] = solubility in aqueous solution; assay type: physicochemical; details: aqueous citric acid/phosphate; process of the invention (citric acid/phosphate); read-out: solubility of azithromycin in aqueous solution
Source text: Formulations containing azithromycin at concentration ranging from 0.01 to 10% w/v, more particularly between 0.3 and 5% w/v, are the most preferred.

[3] = Protocol: The final solution (100 ml), has been sterilized and distributed in appropriate vials.
in vivo [4] = details: rabbit, topical or ocular, Ct (tissue concentration of azithromycin)
Protocol: (§1) Twelve male white New Zealand rabbits (weighing 1.8-2.3 kg) have been randomly divided in three groups (consisting of four animals each).
(§2) I Group: three instillations (animals have been sacrificed 6 hours after the first dosing)
(§3) II Group: six instillations (animals have been sacrificed 12 hours after the first dosing)
(§4) III Group: six instillations (animals have been sacrificed 24 hours after the first dosing)
(§5) Aqueous humor has been drawn away with a 23-gauge needle attached to an insulin syringe of 1 ml. After enucleation the cornea has been excised at the limbus and removed from the eyeball. All specimens have been carefully weighed, then immediately frozen at -20° C. […] Each specimen has been ground and homogenized with 1 ml of PBS (2 min., 24,000 rpm). The suspension has been mixed with an equal volume of acetonitrile and stored at 0° C. After 1 hour, the samples have been centrifuged at 0° C. […] Aqueous humor has been directly mixed with acetonitrile before being centrifuged.

in vivo [5] = assay: in vivo; parameters: species or system white New Zealand rabbits; details: rabbit, topical or ocular, Ct (tissue concentration of azithromycin)
Protocol: as §1, §2, §3, §4, §5

[6] = Azithromycin distribution in aqueous humor after topical application; assay type: in vivo, white New Zealand rabbits; details: detection limit 3.8
Protocol: as §1, §2, §3, §4, §5

Staphylococcus aureus = assay: MIC90 for Staphylococcus aureus; assay type: cell-based
H. influenzae ATCC 49247 = assay: In vitro antibacterial activity, MIC; assay type: cell-based; details: Haemophilus influenzae
Source text: (§6) In vitro bacteriostatic/bactericidal activity of azithromycin in different ophthalmic solutions has been evaluated as a function of ([H+]). Assessment of the activity it has been carried out by standardized method recommended by the National Committee for Clinical Laboratory Standards (NCCLS). In particular, three azithromycin solutions at different pH (6.5, 7.2, 7.8) in citrate-phosphate have been examined. Accordingly, three aliquots of Mueller-Hinton broth have been adjusted to the same pH of the azithromycin solutions (three) to be tested.
(§7) MIC values (μg/ml) have been measured by turbidity standard method after incubation of azithromycin aliquots, at the different pH, ranging from 18 to 24 h. Incubation for Staphylococcus spp. and Pseudomonas spp. needs aerobic conditions whereas Streptococcus spp. and Haernophilus spp. require partial anaerobic conditions during the period of incubation (5%, CO2).
(§8) Concentration of azithromycin able to inhibit the growth of the bacteria, after the period of incubation, is defined as the minimum inhibitory concentration (MIC).

H. influenzae ATCC 9006 = assay: In vitro antibacterial activity, MIC; assay type: cell-based; details: Haemophilus influenzae
Source text: as §6, §7, §8

[7] = test system: Ps. aeruginosa ATCC 27853; assay: In vitro antibacterial activity, MIC; assay type: cell-based; details: Pseudomonas aeruginosa
Source text: as §6, §7, §8

Ps. aeruginosa ATCC 9027 = assay: In vitro antibacterial activity, MIC; assay type: cell-based; details: Pseudomonas aeruginosa
Source text: as §6, §7, §8

S. aureus ATCC 25923 = assay: In vitro antibacterial activity, MIC; assay type: cell-based; details: Staphylococcus aureus
Source text: as §6, §7, §8

S. aureus ATCC 29213 = assay: In vitro antibacterial activity, MIC; assay type: cell-based; details: Staphylococcus aureus
Source text: as §6, §7, §8

S. aureus ATCC 6538P = assay: In vitro antibacterial activity, MIC; assay type: cell-based; details: Staphylococcus aureus, ATCC6538P
Source text: as §6, §7, §8

[8] = test system: S. epidermidis ATCC 12228; assay: In vitro antibacterial activity, MIC; assay type: cell-based; details: Staphylococcus epidermidis
Source text: as §6, §7, §8

[9] = test system: St. Pneumoniae ATCC 49619; assay: In vitro antibacterial activity, MIC; assay type: cell-based; details: Streptococcus pneumoniae, ATCC49619, pH 6.5
Source text: as §6, §7, §8

CC[C@H]1OC(=O)[C@H](C)[C@@H](O[C@H]2C[C@@](C)(OC)[C@@H](O)[C@H](C)O2)[C@H](C)[C@@H](O[C@@H]2O[C@H](C)C[C@H](N(C)C)[C@H]2O)[C@](C)(O)C[C@@H](C)CN(C)[C@H](C)[C@@H](O)[C@]1(C)O [azithromycin]
solubilization by citric acid ([1]; citric acid, physiological range of pH): elevated concentration | equivalent point ([1]; titration with citric acid): ~7.0 pH | solubility [2]: > 100 mg/mL | effect of azithromycin concentration on stability [3]: does not affect the stability of the final product | concentration at 6 h (in vivo [4]): < 100000 ng/g | concentration at 24 h (in vivo [4]): 216000 ng/g | concentration at 12 h (in vivo [4]; Average): 222000 ng/g | concentration at 24 h (in vivo [4]; Average): 169000 ng/g | concentration at 6 h (in vivo [5]): < 200000 ng/g | concentration at 6 h (in vivo [5]; Average): 250000 ng/g | concentration at 24 h (in vivo [5]; Average): 420000 ng/g | azithromycin concentration in aqueous humor [6]: < 3.8 µg/mL | MIC90 (Staphylococcus aureus): 2.25 µg/mL (≈ 3 µM) | MIC (H. influenzae ATCC 49247; ATCC49247, pH 6.5): 3 µg/mL (≈ 4.01 µM) | MIC (H. influenzae ATCC 49247; ATCC49247, pH 7.2): 2 µg/mL (≈ 2.67 µM) | MIC (H. influenzae ATCC 49247; ATCC49247, pH 7.8): 1 µg/mL (≈ 1.34 µM) | MIC (H. influenzae ATCC 9006; ATCC9006, pH 6.5): 3 µg/mL (≈ 4.01 µM) | MIC (H. influenzae ATCC 9006; ATCC9006, pH 7.2): 2 µg/mL (≈ 2.67 µM) | MIC (H. influenzae ATCC 9006; ATCC9006, pH 7.8): 0.5 µg/mL (≈ 0.668 µM) | MIC ([7]; ATCC27853, pH 6.5): > 200 µg/mL | MIC ([7]; ATCC27853, pH 7.2): 50 µg/mL (≈ 66.8 µM) | MIC ([7]; ATCC27853, pH 7.8): 12.5 µg/mL (≈ 16.7 µM) | MIC (Ps. aeruginosa ATCC 9027; ATCC9027, pH 6.5): 200 µg/mL (≈ 267 µM) | MIC (Ps. aeruginosa ATCC 9027; ATCC9027, pH 7.2): 25 µg/mL (≈ 33.4 µM) | MIC (Ps. aeruginosa ATCC 9027; ATCC9027, pH 7.8): 6.25 µg/mL (≈ 8.34 µM) | MIC (S. aureus ATCC 25923; ATCC25923, pH 6.5): 3 µg/mL (≈ 4.01 µM) | MIC (S. aureus ATCC 25923; ATCC25923, pH 7.2): 1.5 µg/mL (≈ 2 µM) | MIC (S. aureus ATCC 25923; ATCC25923, pH 7.8): 0.75 µg/mL (≈ 1 µM) | MIC (S. aureus ATCC 29213; ATCC29213, pH 6.5): 3.25 µg/mL (≈ 4.34 µM) | MIC (S. aureus ATCC 29213; ATCC29213, pH 7.2): 2.25 µg/mL (≈ 3 µM) | MIC (S. aureus ATCC 29213; ATCC29213, pH 7.8): 1 µg/mL (≈ 1.34 µM) | MIC (S. aureus ATCC 6538P; pH 6.5): 2.25 µg/mL (≈ 3 µM) | MIC (S. aureus ATCC 6538P; pH 7.2): 1 µg/mL (≈ 1.34 µM) | MIC (S. aureus ATCC 6538P; pH 7.8): 0.75 µg/mL (≈ 1 µM) | MIC ([8]; ATCC12228, pH 6.5): 2.5 µg/mL (≈ 3.34 µM) | MIC ([8]; ATCC12228, pH 7.2): 1.5 µg/mL (≈ 2 µM) | MIC ([8]; ATCC12228, pH 7.8): 0.75 µg/mL (≈ 1 µM) | MIC [9]: 1.25 µg/mL (≈ 1.67 µM)
